Experimental findings from EP3351262A1, “CURAGLUTIDE FOR IN TREATMENT OF PREDIABETES, DIABETES, OBESITY AND METABOLIC DISEASES ASSOCIATED THERETO” (Istanbul Universitesi Rektorlugu, priority 2016, dated 2018) are described below.

The structures appear in SMILES notation.

For the data set, the system named is INS-1 cells. As to the kind of experiment: Lactate dehydrogenase (LDH) release cytotoxicity test (necrosis). The note with it: for % cytotoxicity values: LDH secretion; for cytotoxicity value percentages: 24 h, positive control (lysis) 100%. It is filed as cell-based, rat. The procedure:
Lactate dehydrogenase (LDH) release test is based on the measurement of the activity of lactate dehydrogenase which is a cytoplasmic enzyme released from the dead cells or cells with damaged plasma membrane and it is used in cellular cytotoxicity assessment. The cytotoxic effect of palmitic acid on […] pancreatic INS-1 cell strain was determined by LDH activity released from the damaged cells and for this purpose Cytotoxicity Determination Kit, LDH (Roche Molecular Marker) was used.
In LDH test, as well as the experimental groups wherein palmitic acid was applied, negative control group for spontaneous LDH release from the cells and positive control group for LDH release were studied. Since palmitic acid in 0.5, 0.75 and 1 mM doses decreases the cell viability, these doses and the control group of the highest dose were studied. The cells were removed by trypsin-EDTA and centrifuged, after growth in 75 cm^2 flask. The cells were suspended in medium in a way such that there would be 50 000 cells in 100 µl, and 100 µl cell suspension was transferred into plates with 96 wells. 10 wells were studied for each of the control and experiment groups and the experiment was repeated for 3 times. After the incubation for 24 hours, the control groups were washed with PBS, and they were freshened with the medium without sodium pyruvate and beta-mercaptoethanol. The medium of the experiment groups was changed with the medium containing different concentrations of palmitic acid. Following the incubation of the cells with palmitic acid for 24 hours, LDH activity released from the cells was determined according to the instructions of the manufacturer. 5 µl lysis solution (2% Triton-X-100) was added to the wells of positive control group and the plate was incubated at 37 °C for 15 minutes. In order to measure LDH activity, the fresh reaction mixture prepared containing catalyst (Diaphorase+NAD mixture) and paint solution (Iodotetrazolium chloride (INT) and sodium lactate) was added to each of the wells. Following the incubation at room temperature for 30 minutes, the reaction was stopped by adding 50 µl stopping solution (IN HCl) to each of the wells. The plates were shaken in an orbital shaker for 10 seconds and the spectrophotometric absorbance was measured in 490 nm test wavelength and 690 nm reference wavelength. The results were determined as "cytotoxicity %". The average absorbance values of negative control were extracted from control and experiment groups and they were calculated by using the formula below by comparing control and experiment groups according to positive control group, and by assuming that positive control group is 100% cytotoxic: 100% Cytotoxicity = ((Experiment or Control Value)−(Negative Control))/((Positive Control)−(Negative Control)) × 100 [formula]
Lactate dehydrogenase release in INS-1 cells wherein different palmitic acid doses were applied was measured using cytotoxicity kit and the results are shown in Figure 4.
Protective and therapeutic effect of 10 nM curaglutide on necrosis is shown in Figure 10 by the evaluation of LDH secretion at 3 and 4 mM doses in INS-1 beta cells. According to the results, in INS-1 beta cells % cytotoxicity values are 48.2±2 in the group where 3 mM dose (necrotic dose) of palmitic acid was administered, 11.6±2.9 in the group where 10 nM curaglutide was administered as a protective against necrotic dose, 11.6±4.8 in the group where 10 nM curaglutide was supplied as a curative agent in necrotic dose, 81.3±5.9 in the group where 4 mM dose of palmitic acid was administered, […] in the group where curaglutide was administered as a protective against 4 mM palmitic acid, 68.2±7.2 in the group where 10 nM curaglutide was administered as therapeutic at 4 mM dose of palmitic acid. As compared to the control group, statistically meaningful results were obtained in both doses in terms of protective effect (p<0,0001). […]

Turning to `CC[C@H](C)[C@H](NC(=O)[C@H](Cc1ccccc1)NC(=O)[C@H](CCC(=O)O)NC(=O)[C@H](CCCCN)NC(=O)[C@H](C)NC(=O)[C@H](C)NC(=O)[C@H](CCC(N)=O)NC(=O)CNC(=O)[C@H](CCC(=O)O)NC(=O)[C@H](CC(C)C)NC(=O)[C@H](Cc1ccc(O)cc1)NC(=O)[C@H](CO)NC(=O)[C@H](CO)NC(=O)[C@@H](NC(=O)[C@H](CC(=O)O)NC(=O)[C@H](CO)NC(=O)[C@@H](NC(=O)[C@H](Cc1ccccc1)NC(=O)[C@@H](NC(=O)CNC(=O)[C@H](CCC(=O)O)NC(=O)[C@H](C)NC(=O)[C@H](Cc1c[nH]cn1)NC(C)=O)[C@@H](C)O)[C@@H](C)O)C(C)C)C(=O)N[C@@H](C)C(=O)N[C@@H](Cc1c[nH]c2ccccc12)C(=O)N[C@@H](CC(C)C)C(=O)N[C@H](C(=O)N[C@@H](CCCCN)C(N)=O)C(C)C` [curaglutide], the “% cytotoxicity values” is given as 11.6±4.8% (10 nM curaglutide as curative agent, 3 mM palmitic acid (necrotic dose)); 11.6±2.9% (10 nM curaglutide as protective against 3 mM palmitic acid (necrotic dose)); 68.2±7.2% (10 nM curaglutide as therapeutic at 4 mM palmitic acid); 45.8±6.8% (curaglutide as protective against 4 mM palmitic acid).

Consider `CCCCCCCCCCCCCCCC(=O)O` [palmitic acid], for which the cytotoxicity value percentages by setting is: (1 mM palmitic acid) 1±0%; (2 mM palmitic acid) 13.5±2.4%; (3 mM palmitic acid (necrotic dose)) 48.2±2%; (4 mM palmitic acid) 81.3±5.9%.
